Experimental data as given in US8148354B2, “Use of 20(S)-protopanaxadiol in manufacture of antidepressants” (priority 2006, dated 2012).
Marks after values point to notes of the source that are not given here.

Tests used:
[1] = system: Reserpine-Induced Akinesia in Mice; assay: Inhibition of akinesia induced by reserpine; assay type: in vivo, Kunming mice; conditions: reserpine 2.5 mg/kg i.p., 10 mice per group
Procedure: Fifty male Kunming mice, 8-9 weeks old and weighing 18-22 g, were randomly divided by weight into 5 groups, and administered by gavage a single dose of one of the drugs listed in Table 5 for 10 consecutive days. Sixty minutes after the last dose, mice were given a reserpine injection (2.5 mg/kg) delivered i. p. Sixty minutes later, mice were individually placed on the center of a round filter paper 7.5 cm in diameter. After a 30-sec observation, the number of animals that were still on the filter paper was recorded. Fisher's exact test was used for statistical analysis.

[2] = system: mice in the tail suspension test; assay: Tail suspension test in mice; assay type: in vivo, Kunming mice; conditions: mean ± SD
Text: Fifty male Kunming mice, 9-10 weeks old and weighing 22-24 g, were randomly divided by weight into 5 groups and administered by gavage a dose of one of the drugs listed in Table 6. Sixty minutes later, mice were individually suspended by the tail (1 cm from the tip) to a horizontal 1 cm-diameter PVC bar by use of the adhesive tape. The tail of mouse was thereby prevented from twisting. The PVC bar was placed overhead to suspend the mouse upside-down, keeping the head 5 cm above the table surface. To avoid interference, each mouse was partitioned by clapboard. […] T-test was used for statistical analysis.
Fifty male Kunming mice, 8-9 weeks old and weighing 18-22 g, were randomly divided by weight into 5 groups, and administered by gavage a dose of one of the drugs listed in Table 7 for 10 consecutive days. Sixty minutes after the last dose, mice were individually suspended by the tail (1 cm from the tip) from a horizontal 1 cm-diameter PVC bar using the adhesive tape. The tail of the mouse was thereby prevented from twisting. The PVC bar was placed overhead to suspend the mouse upside down, keeping the head 5 cm above the table surface. To avoid interference, each mouse was partitioned by clapboard.

5-HT Re-uptake = assay: 5-HT re-uptake test ([14C]-5-HT, hypothalamus homogenate); assay type: biochemical, SD rats
Procedure: Eight male SD rats were decapitated. The hypothalamuses were rapidly removed, weighed and homogenized in a 9-fold volume of 0.32 mol/L ice-cold sucrose solution, and centrifuged at a rate of 3420 rpm for 10 minutes at 0-4° C. […] Ten tubes were prepared for each group and all tubes were incubated at 37° C. for 5 minutes. […] CO2 chamber for 5 minutes, followed by centrifugation at a rate of 7,480 rpm for 10 minutes. The supernatant of the solution was put into a scintillation vial for counting after adding 10 ml scintillation fluid (scintillation was performed 3 times). The re-uptake of serotonin was calculated by the difference in DMP at 37° C. and 0° C.

[3] = system: mice in the forced swimming test; assay: Forced swimming test using mice; assay type: in vivo, Kunming mice; conditions: mean ± SD
Procedure: Fifty male Kunming mice, 9-10 weeks old and weighing 22-24 g, were randomly divided by weight into 5 groups and administered by gavage a single dose of one of the drugs listed in Table 6. Sixty minutes later, the mice were placed in individual beakers (2500 ml, 20 cm×14 cm in diameter), which had previously been filled with water (25° C.) up to 10 cm from the bottom. The duration of immobility in the last 4 minutes in the 6-min swimming test was recorded (the term immobility indicates no movement except for respiration). T-test was used for statistical analysis.
Fifty male Kunming mice, 8-9 weeks old and weighing 18-22 g, were randomly divided by weight into 5 groups and subjected to gavage once a day for 10 consecutive days as shown in Table 7. Sixty minutes after the last dose, the mice were individually placed in beakers (2500 ml, 20 cm×14 cm in diameter), which had previously been filled with water (25° C.) up to 10 cm from the bottom. The cumulative time of immobility in the last 4 minutes of a total swimming time of 6 minutes was recorded (the term immobility indicates no movement except for respiration). T-test was used for statistical analysis.

[4] = multiple dose 18 mg/kg × 10 i.g.

Row | Compound | Number of animals Remaining on the filter paper for 30 seconds ([1]; 3.75 mg/kg × 10 i.g.) | Number of animals Remaining on the filter paper for 30 seconds ([1]; 7.5 mg/kg × 10 i.g.) | Cumulative immobility within 6 minutes ([2]; single dose 3.75 mg/kg × 1 i.g.) [s] | Cumulative immobility within 6 minutes ([2]; single dose 7.5 mg/kg × 1 i.g.) [s] | Amount of re-uptake (5-HT Re-uptake; concentration 0.01 μg/ml) [dmp] | Inhibitory rate (5-HT Re-uptake; concentration 0.01 μg/ml) [%] | Amount of re-uptake (5-HT Re-uptake; concentration 0.1 μg/ml) [dmp] | Inhibitory rate (5-HT Re-uptake; concentration 0.1 μg/ml) [%] | Amount of re-uptake (5-HT Re-uptake; concentration 1 μg/ml) [dmp] | Inhibitory rate (5-HT Re-uptake; concentration 1 μg/ml) [%] | Amount of re-uptake (5-HT Re-uptake; concentration 10 μg/ml) [dmp] | Inhibitory rate (5-HT Re-uptake; concentration 10 μg/ml) [%] | Number of animals Remaining on the filter paper for 30 seconds ([1]; 18 mg/kg × 10 i.g.) | Cumulative immobility within 4 minutes [3, 4] [s] | Cumulative immobility within 6 minutes ([3]; single dose 18 mg/kg × 1 i.g.) [s] | Cumulative immobility within 6 minutes [2, 4] [s] | Cumulative immobility within 6 minutes ([2]; single dose 18 mg/kg × 1 i.g.) [s]
1 | CC(C)=CCC[C@](C)(O)[C@H]1CC[C@]2(C)[C@@H]1[C@H](O)C[C@@H]1[C@@]3(C)CC[C@H](O)C(C)(C)[C@@H]3CC[C@]12C [20(S)-protopanaxadiol] | 8 | 7 | 95.00 ± 36.21 | 92.30 ± 32.93 | 4377.8 ± 479.7 | 11.7 | 4117.3 ± 532.0 | 17.0 | 3963.5 ± 459.4 | 20.1 | 3696.4 ± 392.9 | 25.5 |  |  |  |  | 
2 | CNCCC(Oc1ccc(C(F)(F)F)cc1)c1ccccc1 (centres unmarked) [Fluoxetine, reference compound] |  |  |  |  |  |  |  |  |  |  |  |  | 3** | 81.50 ± 36.77 | 86.20 ± 32.56 | 59.10 ± 35.40 | 70.90 ± 23.11
